Data from ChEMBL document CHEMBL1201862, “PubChem BioAssay data set” (2004).
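Where inhibition never reached the appropriate level, the endpoint shown equals the highest concentration tested. Otherwise, values were interpolated linearly from a five-concentration, 48-hour dose response in 96-well plates. At the GI50, growth is halved.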 Active and inactive are the calls of the source. Rule as the data show it: active = GI50 up to about 1.1 µM and inactive = higher.

Key:
Experiment in all cases: NCI tumour cell line growth inhibition, 48 h
[1] = test system: 786-0
[2] = test system: A498
[3] = test system: A549
[4] = test system: ACHN
[5] = test system: BT-549
[6] = test system: CAKI-1
[7] = test system: CCRF-CEM
[8] = test system: COLO 205
[9] = test system: DU-145
[10] = test system: EKVX
[11] = test system: HCT-116
[12] = test system: HCT-15
[13] = test system: HL-60
[14] = test system: HOP-62
[15] = test system: HOP-92
[16] = test system: HT-29
[17] = test system: Hs-578T
[18] = test system: IGROV-1
[19] = test system: K562
[20] = test system: KM12
[21] = test system: LOX IMVI
[22] = test system: M14
[23] = test system: MCF7
[24] = test system: MDA-MB-231
[25] = test system: MDA-MB-435
[26] = test system: MDA-N
[27] = test system: MOLT-4
[28] = test system: Malme-3M
[29] = test system: NCI-H226
[30] = test system: NCI-H23
[31] = test system: NCI-H460
[32] = test system: NCI-H522
[33] = test system: NCI/ADR-RES
[34] = test system: OVCAR-3
[35] = test system: OVCAR-4
[36] = test system: OVCAR-5
[37] = test system: OVCAR-8
[38] = test system: PC-3
[39] = test system: RPMI-8226
[40] = test system: RXF 393
[41] = test system: SF-268
[42] = test system: SF-295
[43] = test system: SF-539
[44] = test system: SK-MEL-28
[45] = test system: SK-MEL-2
[46] = test system: SK-MEL-5
[47] = test system: SK-OV-3
[48] = test system: SN12C
[49] = test system: SNB-19
[50] = test system: SNB-75
[51] = test system: SR
[52] = test system: SW-620
[53] = test system: T47D
[54] = test system: TK-10
[55] = test system: U-251
[56] = test system: UACC-257
[57] = test system: UACC-62
[58] = test system: UO-31
[59] = test system: HCC 2998

N#CCC1(c2ccc(Cl)cc2)NC(=O)c2ccccc21 (centres undefined)
GI50 [1]: > 100 µM (inactive) | GI50 [2]: > 100 µM (inactive) | GI50 [3]: > 100 µM (inactive) | GI50 [4]: > 100 µM (inactive) | GI50 [5]: > 100 µM (inactive) | GI50 [6]: > 100 µM (inactive) | GI50 [7]: > 100 µM (inactive) | GI50 [8]: > 100 µM (inactive) | GI50 [9]: > 100 µM (inactive) | GI50 [10]: > 100 µM (inactive) | GI50 [11]: > 100 µM (inactive) | GI50 [12]: > 100 µM | GI50 [13]: > 100 µM (inactive) | GI50 [14]: > 100 µM (inactive) | GI50 [15]: > 100 µM (inactive) | GI50 [16]: > 100 µM (inactive) | GI50 [17]: > 100 µM (inactive) | GI50 [18]: > 100 µM (inactive) | GI50 [19]: > 100 µM (inactive) | GI50 [20]: > 100 µM (inactive) | GI50 [21]: > 100 µM (inactive) | GI50 [22]: > 100 µM (inactive) | GI50 [23]: > 100 µM (inactive) | GI50 [24]: > 100 µM (inactive) | GI50 [25]: > 100 µM (inactive) | GI50 [26]: > 100 µM (inactive) | GI50 [27]: > 100 µM (inactive) | GI50 [28]: > 100 µM (inactive) | GI50 [29]: > 100 µM (inactive) | GI50 [30]: > 100 µM (inactive) | GI50 [31]: > 100 µM (inactive) | GI50 [32]: > 100 µM (inactive) | GI50 [33]: > 100 µM (inactive) | GI50 [34]: > 100 µM (inactive) | GI50 [35]: > 100 µM (inactive) | GI50 [36]: > 100 µM (inactive) | GI50 [37]: > 100 µM (inactive) | GI50 [38]: > 100 µM (inactive) | GI50 [39]: > 100 µM (inactive) | GI50 [40]: > 100 µM (inactive) | GI50 [41]: > 100 µM (inactive) | GI50 [42]: > 100 µM (inactive) | GI50 [43]: > 100 µM (inactive) | GI50 [44]: > 100 µM (inactive) | GI50 [45]: > 100 µM (inactive) | GI50 [46]: > 100 µM (inactive) | GI50 [47]: > 100 µM (inactive) | GI50 [48]: > 100 µM (inactive) | GI50 [49]: > 100 µM (inactive) | GI50 [50]: 60.8 µM (inactive) | GI50 [51]: > 100 µM (inactive) | GI50 [52]: > 100 µM (inactive) | GI50 [53]: > 100 µM (inactive) | GI50 [54]: 96.2 µM (inactive) | GI50 [55]: > 100 µM (inactive) | GI50 [56]: > 100 µM (inactive) | GI50 [57]: > 100 µM (inactive) | GI50 [58]: > 100 µM (inactive)

CN(C)c1ccc(C2SCC(=O)N2c2ccc(Oc3ccc(Cl)cc3)c(Cl)c2)cc1 (centres undefined)
GI50 [1]: 17.7 µM (inactive) | GI50 [3]: 22.7 µM (inactive) | GI50 [4]: 29.7 µM (inactive) | GI50 [5]: 17 µM (inactive) | GI50 [6]: 32.4 µM (inactive) | GI50 [7]: 18.5 µM (inactive) | GI50 [8]: 20.6 µM (inactive) | GI50 [9]: 16.7 µM (inactive) | GI50 [10]: 22.8 µM (inactive) | GI50 [59]: 22.3 µM (inactive) | GI50 [11]: 16.7 µM (inactive) | GI50 [12]: 24.2 µM | GI50 [13]: 20.3 µM (inactive) | GI50 [14]: 20.5 µM (inactive) | GI50 [15]: 21.8 µM (inactive) | GI50 [16]: 20.2 µM (inactive) | GI50 [17]: 14.4 µM (inactive) | GI50 [18]: 22.6 µM (inactive) | GI50 [20]: 20.3 µM (inactive) | GI50 [21]: 18.7 µM (inactive) | GI50 [22]: 28.8 µM (inactive) | GI50 [23]: 37.2 µM (inactive) | GI50 [24]: 20.4 µM (inactive) | GI50 [25]: 22.7 µM (inactive) | GI50 [26]: 28.6 µM (inactive) | GI50 [27]: 27.8 µM (inactive) | GI50 [28]: 15.1 µM (inactive) | GI50 [29]: 30.4 µM (inactive) | GI50 [30]: 18.5 µM (inactive) | GI50 [31]: 22.5 µM (inactive) | GI50 [32]: 18.3 µM (inactive) | GI50 [33]: 22.3 µM (inactive) | GI50 [34]: 23.3 µM (inactive) | GI50 [35]: 22.9 µM (inactive) | GI50 [36]: 26.4 µM (inactive) | GI50 [37]: 28.2 µM (inactive) | GI50 [38]: 19.9 µM (inactive) | GI50 [39]: 15.2 µM (inactive) | GI50 [41]: 13.8 µM (inactive) | GI50 [42]: > 10 µM (inactive) | GI50 [43]: 18.1 µM (inactive) | GI50 [44]: 35 µM (inactive) | GI50 [45]: 20.4 µM (inactive) | GI50 [46]: 19.1 µM (inactive) | GI50 [47]: 29 µM (inactive) | GI50 [48]: 23.3 µM (inactive) | GI50 [49]: 20.3 µM (inactive) | GI50 [50]: 17.6 µM (inactive) | GI50 [51]: 27.5 µM (inactive) | GI50 [52]: 29.4 µM (inactive) | GI50 [53]: 15.3 µM (inactive) | GI50 [54]: 48.4 µM (inactive) | GI50 [55]: 20.5 µM (inactive) | GI50 [56]: 36.6 µM (inactive) | GI50 [57]: 19 µM (inactive) | GI50 [58]: 11.6 µM (inactive)
